Tested on: CDF1 male mice
Assay: Spontaneous activity for 60 minutes after 3 hours forced walking exercise (treadmill), infrared sensor
Format: in vivo
Conditions: oral, Bonito Extract A 1 g/kg in terms of a free amino acid amount, known components of Bonito Extract A, vs Control group
Procedure: Three groups (A, B and C groups) of 5-week-old CDF1 male mice, each group consisting of 8 mice (n=8 for each group), were put in a treadmill and subjected to forced walking exercise for 3 hours. Then, the mice of the respective groups were orally administrated, using a gastric sonde, with (1) Bonito Extract A, (2) Bonito Extract B, and (3) Bonito Extract C in an amount of 1 g/kg in terms of free amino acid amount in the bonito extracts. Subsequently, their spontaneous activity for 60 minutes was measured using a spontaneous activity measuring apparatus provided with an infrared sensor, and comparison with the control group (Control group which was administrated with only deionized distilled water in the same manner as the samples) was carried out. The respective samples and the distilled water were administered in amounts of 0.5 mL. The result is represented in FIG. 1.
In the Figure, *, ** and *** represent significant differences from the control group, * being at p<0.05, ** being at p<0.01, and *** being at p<0.001. “Total counts” refers to the number of times of exercising that were measured with the infrared sensor for 60 minutes.
Three groups of 5-week-old CDF1 male mice, each group consisting of 8 mice (n=8 for each group), were put in a treadmill and subjected to forced walking exercise for 3 hours. […]

| Compound | recovery of spontaneous activity (Test Example 6, FIGS. 8, 9 and 10) |
| --- | --- |
| [Cl-].[Na+] [NaCl] | recovery of spontaneous activity was not observed |
| inosine 1-phosphate [nucleic acid] | recovery of spontaneous activity was not observed |

— patent publication US20090104278A1, “FOOD COMPOSITION FOR RECOVERY FROM FATIGUE” (Ajinomoto Co., Inc., priority 2002, published 2009)
